According to ChEMBL document CHEMBL1157052, “Novel cyclic-imide peptidomimetics as aminopeptidase N inhibitors. Structure-based design, chemistry and activity evaluation. II” (Eur J Med Chem, 2010):
The source made the active and inactive calls. No cut-off for these calls is given here.

Tests used:
HL-60 = assay: Antiproliferative activity against human HL60 cells after 48 hrs by MTT assay; details: HL-60, 48 h
[1] = Antimetastatic activity against human ES2 cells xenografted in mouse lung assessed as inhibition of tumor growth at 10 mg/kg/day, po for 6 days a week for 2 weeks; format: functional; details: ES-2, read-out: TGI
H22 = assay: Antimetastatic activity against mouse H22 cells transplanted in mouse lung assessed as inhibition of tumor growth on the surface of lungs at 50 mg/kg/day, po for 6 days a week for 2 weeks; format: functional; details: read-out: TGI
K562 = assay: Antiproliferative activity against human K562 cells at 400 ug/ml after 48 hrs by MTT assay; format: functional, cell-based
[2] = biological target: Aminopeptidase N (Sus scrofa) (UniProt P15145); assay: Inhibition of aminopeptidase N
[3] = Antimetastatic activity against human ES2 cells xenografted in mouse lung assessed as inhibition of tumor growth at 50 mg/kg/day, po for 6 days a week for 2 weeks; format: functional; details: ES-2, read-out: TGI

Aminopeptidase N (Sus scrofa), sequence (P15145 whole entry, looked up): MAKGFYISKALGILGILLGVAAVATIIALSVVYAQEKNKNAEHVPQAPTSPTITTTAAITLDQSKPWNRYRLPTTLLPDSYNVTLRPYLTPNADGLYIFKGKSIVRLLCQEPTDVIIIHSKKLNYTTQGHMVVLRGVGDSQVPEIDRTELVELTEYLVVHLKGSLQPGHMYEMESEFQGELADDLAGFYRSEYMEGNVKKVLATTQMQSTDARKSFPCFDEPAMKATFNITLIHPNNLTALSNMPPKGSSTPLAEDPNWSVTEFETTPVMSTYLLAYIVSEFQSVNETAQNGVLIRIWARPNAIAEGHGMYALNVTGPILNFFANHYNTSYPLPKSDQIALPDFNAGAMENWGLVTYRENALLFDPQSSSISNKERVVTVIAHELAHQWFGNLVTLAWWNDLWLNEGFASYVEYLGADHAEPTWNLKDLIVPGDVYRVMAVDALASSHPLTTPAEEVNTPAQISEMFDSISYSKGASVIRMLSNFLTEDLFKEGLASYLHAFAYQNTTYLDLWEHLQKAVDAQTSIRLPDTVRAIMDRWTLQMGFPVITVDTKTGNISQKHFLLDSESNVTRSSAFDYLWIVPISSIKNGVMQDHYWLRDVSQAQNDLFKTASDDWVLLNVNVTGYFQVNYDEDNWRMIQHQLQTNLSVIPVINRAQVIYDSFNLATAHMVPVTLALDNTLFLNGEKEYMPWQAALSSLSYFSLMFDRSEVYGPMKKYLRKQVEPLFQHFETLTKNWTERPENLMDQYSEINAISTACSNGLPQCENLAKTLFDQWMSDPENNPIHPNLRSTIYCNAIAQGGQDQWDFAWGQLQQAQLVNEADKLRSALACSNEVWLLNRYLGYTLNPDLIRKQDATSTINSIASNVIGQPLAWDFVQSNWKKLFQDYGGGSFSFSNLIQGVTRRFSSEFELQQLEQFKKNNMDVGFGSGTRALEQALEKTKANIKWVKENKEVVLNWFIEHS

IC50 [2]	Compound	IC50 (HL-60)	inhibition in vivo at 10 mg/kg/day [1]	inhibition in vivo at 50 mg/kg/day (H22)	Activity (K562)	inhibition in vivo at 50 mg/kg/day [3]
–	N[C@@H](Cc1ccccc1)C(=O)N[C@H]1CCC(=O)N(CC(=O)NO)C1=O	105 µM	30.9%	72.9%	inactive	–
3.1 µM	COc1cc(C(=O)N[C@H]2CCC(=O)N(CC(=O)NO)C2=O)cc(OC)c1OC	–	–	–	–	–
–	N[C@@H](Cc1ccc(O)cc1)C(=O)N[C@H]1CCC(=O)N(CC(=O)NO)C1=O	147 µM	–	62.7%	–	–
–	CC(C)C[C@H](NC(=O)[C@@H](O)[C@H](N)Cc1ccccc1)C(=O)O [UBENIMEX]	–	–	45.4%	–	36.2%
